Earlier results, collected in patent US20210038669A1, “Composition(s) for Topically Treating Pain” (priority 2016, published 2021).

System: neuropathic pain conditions (postherpetic neuralgia, trigeminal, postsurgical or post-traumatic neuralgia)
Conditions: 5% patch, 5% cream, 5% gel, 8% spray; all but one study; third tier (very low quality) evidence

## CCN(CC)CC(=O)Nc1c(C)cccc1C [lidocaine, Lidocaine]
  pain relief versus placebo: better than placebo
